Results as given in US7807368B2, “Cyclin-dependent kinase inhibitors as targets for opiod growth factor treatment” (priority 2006, dated 2010).

What was measured:
[1] = tested on: CAL-27 cells; assay: Growth curves of CAL-27 cells transfected with p16 siRNA; type: cell-based, human
Experimental: The SCC-1 (UM-SCC-1) cell line was obtained from the University of Michigan Cancer Research Laboratory, and CAL-27 and SCC-4 cells were obtained from the American Type Culture Collection (Manassas, Va.). SCC-1 and CAL-27 cells were cultured in DMEM media, whereas SCC-4 cells were grown in 1:1 Hams F-12 DMEM media. All media was supplemented with 10% fetal bovine serum (HyClone, Logan, Utah), 1.2% sodium bicarbonate, and 5000 units/ml penicillin, 5 μg/ml streptomycin and 10 μg/ml neomycin. OGF was purchased from Sigma-Aldrich (St. Louis, Mo.), dissolved in sterile water, and used at a final concentration of 10^−6 M.
The p16-targeted siRNAs (antisense:5′ […]-3′; sense (SEQ ID NO:5): 5′ […]-3′(SEQ ID NO:6) were obtained as ready-annealed, purified duplex probes (Invitrogen, Carlsbad, Calif.). For transfection, 2×10^5 cells per well were seeded in 6-well plates containing 1 ml of serum-free media without antibiotics. In each well, 20 nM of p16-siRNA or control siRNA solutions in serum-free media were added. Cells were incubated for 4 h at 37° C. prior to the addition of OGF. Cultures were incubated for additional 20 h, and then 1 ml fresh complete media either lacking or containing OGF was added. At the indicated time points, cells were collected for growth curves or Western blotting. Three or more independent experiments were conducted. The control siRNAs were purchased from Ambion.

[2] = tested on: BxPC-3 human pancreatic cancer cells; assay: Growth curves of BxPC-3 cells; type: cell-based; conditions: 10^-6 M OGF
Experimental: Human pancreatic cancer cell lines BxPC-3, PANC-1, and Capan-2 were obtained from the American Type Culture Collection (Manassas, Va.), and cultured in RPMI, Dulbecco's Modified Medium, or McCoy's 5A medium, respectively. All media were supplemented with 10% fetal bovine serum, 1.2% sodium bicarbonate, and 0.25% antibiotics (5000 units/ml penicillin, 5 μg/ml streptomycin and 10 μg/ml neomycin). OGF was purchased from Sigma-Aldrich (St. Louis, Mo.), dissolved in sterile water, and used at a final concentration of 10^−6 M.
For growth curves, cells were seeded in 6-well plates at an initial density of 2×10^5 cells/well. Fresh media and OGF were added 24 hours after initial seeding, and media and OGF were replaced daily. At appropriate times, the cells were washed with PBS, trypsinized, and viable cell numbers were counted by trypan blue exclusion using a hemacytometer.

[3] = tested on: Cdk2 kinase activity; assay: Immunoprecipitation and H1 kinase assay (Cdk2 kinase activity) in BxPC-3 cells; type: cell-based, human
Experimental: To quantify expression levels or kinase activity, the optical density of each band was determined by densitometry and analyzed by QuickOne (Bio-Rad Laboratories). Each value was normalized to β-actin from the same blot. To report the changes due to OGF treatment, we calculated the fold increase by dividing the normalized value from the OGF treated samples by the normalized value of control samples at each time point; thus, increases due to OGF have values greater than one, and decreases due to OGF have values less than one. For all Western blot analyses, 3 or more independent experiments were performed.
To immunoprecipitate protein complexes, cell extracts were prepared as follows: 2×10^6 cells per sample were rinsed in cold PBS followed by lysis in 200 μl immunoprecipitation buffer (1% NP-40, 10 mM HEPES (pH 7.5), 200 mM NaCl, 5 mM EDTA, 50 mM NaF, 0.2 mM sodium orthovanidate, 1 mM phenylmethyl sulfonyl fluoride, 2 mM dithiothreitol), 1× Halt™ protease inhibitorcocktail (Pierce, Rockford, Ill.)). For each immunoprecipitation reaction mixture, a total of 500 μg of protein extract was used. To each sample, 50 μl of protein A beads (Santa Cruz Biotechnology) were added and incubated at 40° C. for 30 min with rotation. Beads were removed by centrifugation at 14000 rpm for 15 s. The lysates were then subjected to immunoprecipitation using 10 μl of polyclonal antibody against Cdk2 and incubated at 40° C. for 1.5 hours with rotation, followed by addition of 20 μl of protein A beads as the immune complex binding agent.
Samples were further incubated at 40 C for 1 hour with rotation. Beads were pelleted by centrifugation at 14000 rpm for 15 s, washed three times with 500 μl ice-cold immunoprecipitation wash buffer (1% NP-40, 50 mM HEPES, 150 mM NaCl, 1 mM EDTA, 1 mM dithiothreitol), and followed by two washes with ice-cold H1 kinase buffer (50 mM HEPES (pH 7.5), 10 mM MgCl2, 10 mM MnCl2, 1 mM dithiothreitol). Immunoprecipitates were incubated with 10 μCi γ^32P-ATP, and 1 μg of histone H1 (Roche) as the substrate for Cdk2. After incubation for 30 min at 30° C., with occasional mixing, the reaction was stopped by the addition of 2× sample loading buffer (Santa Cruz Biotechnology). Proteins were separated by a 12% SDS-PAGE gel, and the Cdk2 kinase activity pattern was visualized by autoradiography of phosphorylated H1.

[4] = tested on: Rabbit Tenon's Fibroblast cells (RTCFs); assay: Cell counts of Rabbit Tenon's Fibroblast cells; type: cell-based; conditions: 72 hours
Experimental: OGF in dosages ranging from 10−4 to 10^−7 M were added to 24-well cultures for 72 hours; sterile water served as control. Drug or vehicle, and media were changed daily. Cell counts of Rabbit Tenon's Fibroblast cells (RTCFs) treated with OGF (10^−7 to 10^−5 M) were 28%, 33%, and 37% smaller than controls (p<0.001).

## [Met^5]-enkephalin [OGF]
[1]
  effect on growth of cells lacking p16: no inhibitory effects
[2]; 48 hours
  cell numbers compared to control cultures: 66%
[2]; 72 hours
  cell numbers compared to control cultures: 55%
[2]; linear regression of growth data
  mean doubling time: 51 h
[3]; OGF for 15, 18 or 21 hours (FIG. 5)
  Cdk2 kinase activity vs control cells at each respective time point: significantly reduced
[3]; OGF for 15 hours
  decrease in Cdk2 kinase activity compared to control: 78%
[3]; OGF for 18 hours
  decrease in Cdk2 kinase activity compared to control: 46%
[3]; OGF for 21 hours
  decrease in Cdk2 kinase activity compared to control: 82%
[4]; 10^-4 M OGF
  decrease in cell proliferation compared to RTCFs treated with 10^-6 M OGF: 22%
  decrease in cell proliferation compared to RTCFs treated with 10^-7 M OGF: 26%
  decrease in proliferation compared to controls: 47%
[4]; 10^-5 M OGF
  Cell counts smaller than controls: 37%
[4]; 10^-6 M OGF
  Cell counts smaller than controls: 33%
[4]; 10^-7 M OGF
  Cell counts smaller than controls: 28%
